From patent US10828303B2, “Composition comprising combination of TRH analog with arundic acid, and pharmaceutically acceptable salt of arundic acid” (Brivention Pharmaceutical (Shanghai) Inc., priority 2016, dated 2020)
Entries after “also recorded” stand apart in the source; their conditions may differ. Where two headings read alike, the source gives them in different places.

Tests used:
[1] = Crystal polymorph screening by the heating method; format: physicochemical; details: open vial, oven 60° C. or 80° C.
Experimental: 30 mg of the compound of Synthesis Example 12 was placed in an open vial, and incubated in an oven heated to 60° C. or 80° C. for 19 hours or for 91 hours. After completion of the incubation, XRPD analysis and polarizing microscope observation were performed. FIG. 26 and FIG. 27 show the results.

[2] = Approximate solubility by manual dilution and visual observation; format: physicochemical; details: 25° C.; for solubility: thermodynamic from solid, read-out: Solubility at 25° C. S
Experimental: The approximate solubility of the calcium salt in different solvents at 25° C. was tested by manual dilutions in combination with visual observation.

[3] = tested on: patients with Alzheimer's disease or patients with cerebrovascular dementia; details: reported in literature; cited from earlier work

Structure (SMILES)	Changes in morphology or XRPD pattern on heating ([1]; 19 hours)	Morphological changes on heating ([1]; 91 hours)	solubility ([2]; 2-propanol (printed 2-Promanol), organic solvent or mixture, 2-Promanol) [mg/mL]	Solubility in words ([2]; different solvents)	solubility ([2]; organic solvent or mixture, Acetone) [mg/mL]	solubility ([2]; organic solvent or mixture, CAN) [mg/mL]	solubility ([2]; organic solvent or mixture, EA) [mg/mL]	solubility ([2]; organic solvent or mixture, Ethanol) [mg/mL]	solubility ([2]; organic solvent or mixture, MEK) [mg/mL]	solubility ([2]; organic solvent or mixture, MtBE) [mg/mL]	solubility ([2]; organic solvent or mixture, THF) [mg/mL]	solubility ([2]; Water) [mg/mL]	Effect on arousal, mood, semantic memory in patients [3]
CCCCCC[C@@H](CCC)C(=O)[O][Ca][O]C(=O)[C@@H](CCC)CCCCCC [Compound of Synthesis Example 12, calcium (R)-2-propyloctanoate (S)-2-propyloctanoate]	no changes in morphology or XRPD pattern were observed	no morphological changes of the compound were observed	> 210	poorly soluble in water; also recorded: dissolved in ethanol, 2-propanol, MtBE, EA, and THF	< 1.7	< 1.5	> 199	> 185	94.4 to 189	> 215	> 198	< 1	–
NC(=O)[C@@H]1CCCN1C(=O)[C@H](Cc1cnc[nH]1)NC(=O)[C@@H]1CCC(=O)N1 [TRH]	–	–	–	–	–	–	–	–	–	–	–	–	improve the level of arousal, mood, semantic memory
